One block for each compound: values may come before it.
How the values were obtained:
[1] = test system: BK channels in pituitary nerve terminals; test: Patch clamp recordings of potassium current in posterior pituitary slices after photolysis of caged cGMP; assay type: cell-based, rats; conditions: slices bathed in 15 μM sildenafil, control recovered in about 3 minutes
Description: Posterior pituitary. Experiments were performed on posterior pituitary glands removed from rats of either sex, ranging in age from 1-3 months. Animals were rendered unconscious by inhalation of CO2, and killed by decapitation. Glands were removed rapidly to maintain tissue health, and transferred to physiological saline (in mM: 125 NaCl, 4 KCl, 26 NaHCO3, 1.25 NaH2PO4, 2 CaCl2, 1 MgCl2, 10 glucose) bubbled with 95% O2/5% CO2 (Jackson et al., 1991, Action potential broadening and frequency-dependent facilitation of calcium signals in pituitary nerve terminals. Proc. Roy. Soc. Lond. 88:380-384). For oxytocin release experiments the pituitary was kept intact. For electrophysiological recordings, slices of posterior pituitary were cut at 70 μm with a vibratome and maintained in physiological saline. Electrophysiology. Recordings of K^+ current were made with patch pipettes filled with (in mM) 130 KCl, 10 NaCl, 10 HEPES, 4 Mg-ATP, 0.3 GTP, 5 EGTA, pH 7.3. Individual nerve terminals were identified in an upright DIC microscope, Jackson, 1993. Passive current flow and morphology in the terminal arborizations of the posterior pituitary. J. Neurophysiol. 69, 692-702, and voltage or current clamped with an EPC-7 patch clamp amplifier. […] The component of potassium current corresponding to BK channels (seen at the end of a 200 msec voltage step from −80 to 50 mV) was determined for each pulse. […]

[2] = test system: posterior pituitary glands; test: Oxytocin release from whole posterior pituitary glands (enzyme immunoassay); assay type: cell-based, rats
Description: Posterior pituitary. Experiments were performed on posterior pituitary glands removed from rats of either sex, ranging in age from 1-3 months. Animals were rendered unconscious by inhalation of CO2, and killed by decapitation. Glands were removed rapidly to maintain tissue health, and transferred to physiological saline (in mM: 125 NaCl, 4 KCl, 26 NaHCO3, 1.25 NaH2PO4, 2 CaCl2, 1 MgCl2, 10 glucose) bubbled with 95% O2/5% CO2 (Jackson et al., 1991, Action potential broadening and frequency-dependent facilitation of calcium signals in pituitary nerve terminals. Proc. Roy. Soc. Lond. 88:380-384). For oxytocin release experiments the pituitary was kept intact. For electrophysiological recordings, slices of posterior pituitary were cut at 70 μm with a vibratome and maintained in physiological saline. Oxytocin release. Whole pituitary glands with attached axon bundle were placed in a chamber perfused with oxygenated physiological saline. Perfusion was stopped at ˜15 min intervals during measurements, when the physiological saline was substituted with a solution of a similar composition, but with the addition of 20 mM HEPES and NaHCO3, and NaH2PO4 reduced to zero. The pH was adjusted to 7.3 with NaOH. Basal release was measured after a 5 min waiting period (immediately before the stimulus application). The axon bundle was stimulated via a large-diameter, monopolar extracellular glass electrode. Oxytocin release was evoked by a series of 5 trains of 0.2 msec, 0.2 mA current pulses with a frequency of 25 Hz and a duration of 10 seconds. Trains were applied at 1 min intervals. Evoked release was measured 5 minutes after the end of stimulation by gently mixing the bath with a micropipette and collecting 10-20 μL samples in the vicinity of the tissue. Three separate samples were collected for each measurement (including basal release control). Perfusion of the oxygenated physiological saline was restored immediately after sample collection and sildenafil was added to the bath solution for 30-60 min. Recordings of the sildenafil effect on basal and evoked release were then repeated as described above. To control for possible rundown of release, measurements of sildenafil effects were in some cases substituted by the second control measurements. Oxytocin was measured in collected fluid using the Correlate-EIA enzyme immunoassay kit (Assay Designs, Ann Arbor, Mich.). Oxytocin concentration was inversely proportional to the yellow color generated by the immunoassay and was scanned into the computer using an automated micro plate reader at 405 nm. Actual oxytocin concentration was determined with a standard curve measured for each sample plate.

pituitary nerve terminal = conditions: after 5 or 10 seconds of high frequency stimulation; control ~30%; cited from earlier work
[3] = 7-NI 100 μM with sildenafil 10 μM

basal oxytocin release ([2]; sildenafil 10 μM, 30-60 min in bath): insignificant increase
evoked oxytocin release ([2]; sildenafil 10 μM, electrical stimulation of axon bundle): large and significant increase
Structure (SMILES): CCCc1nn(C)c2c(=O)[nH]c(-c3cc(S(=O)(=O)N4CCN(C)CC4)ccc3OCC)nc12 [Sildenafil, 5-[2-ethoxy-5-(4-methyl-1-piperazinylsulphonyl)phenyl]-1-methyl-3-n-propyl-1,6-dihydro-7H-pyrazolo [4,3-d]pyrimidin-7-one]
recovery of the cGMP-induced increase in potassium current [1]: greatly slowing the recovery
recovery of the cGMP-induced increase in potassium current ([1]; listed as sildenafil): failed to recover

Structure (SMILES): Nc1nc2c(ncn2[C@@H]2O[C@@H]3COP(=O)(O)O[C@H]3[C@H]2O)c(=O)[nH]1 [cGMP]
success rate of stimulus pulses evoking action potentials (pituitary nerve terminal): ~60%

effect on sildenafil-induced increase in basal oxytocin release [2, 3]: blocked
effect on sildenafil-induced increase in evoked oxytocin release [2, 3]: blocked
Structure (SMILES): O=[N+]([O-])c1cccc2cn[nH]c12 [7-NI, 7-nitorindazol]

Reference: patent US20070010525A1, “Method and compositions for modulating neuropeptide hormone secretion” (priority 2005, published 2007)
